In US20260097111A1, “ETHER LIPIDS FOR HYPERACTIVATION OF MAMMALIAN DENDRITIC CELLS” (priority 2022, published 2026):
Like-named read-outs stand apart in the source and are kept apart here.

Tests used:
[1] = tested on: human monocyte-derived dendritic cells (moDCs); assay: IL-1β secretion by human moDCs treated with lipid and R848; assay type: cell-based; settings: for IL-1β secretion / IL-1β secretion, dependence on the NLRP3 inflammasome: human moDCs; for IL-1β secretion, dependence on the NLRP3 inflammasome: R848 + lipid with or without MCC950, one day, FIG. 3B
Experimental: (§1) Human monocytes were isolated from Leukopaks purchased from Miltenyi using the StraightFrom Leukopak CD14 microbead kit (Miltenyi). Isolations were completed following manufacturer's instructions. Monocytes were then aliquoted and frozen in fetal bovine serum containing 10% dimethyl sulfoxide. For studies with monocyte-derived dendritic cell (moDC) cultures, monocytes were thawed and cultured in RPMI medium containing 10% FBS, 50 units/mL penicillin, […] streptomycin, 2 mM L-glutamine, 1 mM sodium pyruvate, […] beta-mercaptoethanol, 10 mM HEPES, and Gibco MEM non-essential amino acids (R10 media). To differentiate monocytes into moDCs, recombinant human GM-CSF (50 ng/mL) and IL-4 (25 ng/mL) were added to R10 media. Cells were cultured for 6 days with GM-CSF and IL-4, with an additional cell feeding with R10 containing GM-CSF and IL-4 on day 3.
Six days after differentiation, moDC were collected and counted. Cells were plated into 96-well flat-bottom plates at 1×10^5 cells/well. Cells were treated with or without 1 μg/mL R848 (final) and with or without a hyperactivating lipid (or vehicle control). In some experiments, MCC950, an inhibitor of the NLRP3 inflammasome, was added at a final concentration of 10 uM. In some experiments, nigericin, which causes NLRP3 inflammasome activation and subsequent pyroptosis, was used as a positive control at 20 uM. Cells and stimuli totaled a final volume of […].
Lipid stocks were then further diluted in PBS to treat cells.
After an overnight incubation, cells and culture supernatant were used for downstream readouts. One hundred and fifty microliters of cell supernatant were collected. Viability was measured using the CellTiter-Glo assay (Promega) which measures ATP content from cells. Fifty microliters of CellTiter-Glo reagent were added to 50 μL of cells. Luminescence was quantified on a SpectraMax m5e plate reader using an integration time of 500 milliseconds. Viability data were set relative to control conditions where cells were treated with only R848. To measure IL-1β secretion, the human IL-1β Lumit kit (Promega) was used to assay cell culture supernatant. Culture supernatant samples were incubated with enzyme-linked antibodies in a 384-well plate for 1 hour before addition of luminescent substrate. Samples were measured for luminescence with an integration time of 500 milliseconds. IL-1β concentrations of samples was determined by interpolation from a standard curve using 4-parameter logistic regression analysis. Studies were performed on three different human donor samples, and each biological condition was tested in triplicate. Graphed data represent means from each donor.
as §1, with “Human moDC Production. Human” for “Human”, “(Miltenyi) according to the” for “(Miltenyi). Isolations were completed following”, “To differentiate” for “For studies with”, “pyruvate, and” for “pyruvate,”, “beta-mercaptoethanol” for “beta-mercaptoethanol, 10 mM HEPES, and Gibco MEM non-essential amino acids”
Hyperactivating Lipid Formulation—Compound 10. Lipid stocks were formulated at 200 μg/mL lipid in 5% Kolliphor P407 (KP407) in PBS.

[2] = tested on: human moDCs; assay: IL-6 secretion by human moDCs; assay type: cell-based; settings: for IL-6 secretion: human moDCs, FIG. 16
[3] = tested on: murine FLT3L-DCs; assay: Murine bone marrow-derived FLT3L-DCs hyperactivation; assay type: cell-based, mice; settings: FLT3L DCs; for IL-1β secretion: 1 μg/mL R848 2-3 hours alone or then 41 uM lipid, 48 hours, FIG. 4A; for viability: R848 then 41 uM lipid, FIG. 4B
Experimental: Murine bone marrow-derived FLT3L-DCs generation. Leg femur and tibia were removed from mice, cut with scissors, and flushed into sterile tubes. Bone marrow suspension was treated with ACK for 1 minute, then passed through a 40 um cell strainer. Cells were counted and resuspended in media consisting of complete IMDM containing 10% FBS, penicillin and streptomycin, and supplements of L-glutamine and sodium pyruvate (I10). […] For each experiment, 5 mice are used to collect BM and to generate DCs.
Lipid preparation. […] Lipid stocks were then further diluted in PBS to treat cells.
Murine bone marrow-derived FLT3L-DCs hyperactivation. BMDCs were harvested on day 8 post differentiation, washed with PBS, and re-plated in FLT3L-containing I10 at a concentration of 1×10^5 cells/mL. Cells were primed with or without 1 μg/mL R848 (final) then treated with or without a hyperactivating lipid (or vehicle control). Forty-eight hours post stimulation, supernatants were collected for cytokine measurement. Viability was measured using the CellTiter-Glo assay (Promega) which measures ATP content from cells. Fifty microliters of CellTiter-Glo reagent were added to 50 μL of cells. Luminescence was quantified on a SpectraMax m5e plate reader using an integration time of 500 milliseconds. Viability data were set relative to control conditions where cells were treated with R848. IL-1β and TNFα cytokine were measured using sandwich ELISAs (Invitrogen).

[4] = tested on: human moDC; assay: IL-1β ELISA, human moDC treated with R848, DGP, MCC950; assay type: cell-based; settings: only R848 2.85 μM, donor HD94
Experimental: Monocyte Isolation, Storage, and Differentiation into moDC. Human leukapheresis blood products were freshly obtained from AllCells via same day or overnight shipping at 4° C. Miltenyi StraightFrom Leukopak CD14 MicroBead isolation kits were used according to manufacturer instructions to isolate CD14+ monocytes. Briefly, leukopaks ranging in quantity from 5×10^9 to 1×10^10 total nucleated cells were evenly aliquoted into 50 mL conical tubes. Cells were incubated with CD14 microbeads and then loaded on the MultiMACS using the program “Possel2”. After washing out the negative population, CD14+ cells were eluted from the columns and counted. An aliquot of monocytes was used to stain for purity of cells to ensure that isolated live cells were […] CD11c+CD14+ by flow cytometry. […] Vials were placed in CoolCell freezing containers and placed in a −80° C. freezer and stored no longer than 1 week. Frozen cells were transferred for long-term storage to the vapor phase of a liquid nitrogen freezer until use.
To differentiate monocytes into moDC, vials of cells were taken out of the liquid nitrogen freezer and quickly thawed in a 37° C. water bath. Cells were diluted ten-fold in warmed R10++ media containing 50 units/mL benzonase. R10++ media was composed of RPMI 1640 media containing 10% fetal bovine serum, 50 units/mL penicillin, […] streptomycin, 2 mM L-glutamine, 1 mM sodium pyruvate, […] beta-mercaptoethanol, 10 mM HEPES, and 1% Gibco MEM non-essential amino acids. After gentle mixing by inversion of tubes, cells were incubated at 37° C. for 10 min. Cells were pelleted at 400×g for 5 min and supernatant was aspirated. Cells were resuspended in R10++ media and counted on the MoxiGo by diluting an aliquot in PBS containing a final concentration of 2.5 μg/mL propidium iodide. Cells were plated in T75 culture flasks at 3-6×10^7 cells per flask in a total of 20 mL R10++ media containing a final concentration of 50 ng/mL GM-CSF and 25 ng/mL IL-4. Three days after the start of culture, an additional 10 mL R10++ containing 50 ng/mL GM-CSF and 25 ng/mL IL-4 was added to each flask.
Six days after start of differentiation. R10++ media containing cells were placed into 50 mL conical tubes. Flasks were washed with an additional 10 mL PBS and also collected. […] Cells were resuspended in R10++ media and counted on the MoxiGo by diluting an aliquot in PBS containing a final concentration of 2.5 μg/mL propidium iodide. Cells were then adjusted to 1×10^6 cells/mL in R10++ media.
moDC Treatment. Human moDC were plated at 1×10^5 cells/well in 96-well flat-bottom tissue culture plates in R10++ media by adding 100 μL of cells per well. To each well, a 25 μL solution of R10++ containing 400 ng/mL GM-CSF and 200 ng/mL IL-4 was added.
Lyophilized R848 stocks were prepared as described above and frozen at −80° C. An aliquot of frozen R848 was thawed and further diluted to 11.4 μM in R10++ (4 μg/mL R848). Cell culture conditions receiving R848 treatment had 50 μL added to wells. For wells not receiving R848, 50 μL R10++ was added to wells. Lyophilized MCC950 was prepared as described above and stored at −20° C. MCC950 was further diluted to 40 uM in a prepared R10++ solution containing 11.4 μM R848. Cells receiving R848 and MCC950 treatment had 50 μL added to wells. Final concentrations of R848 and MCC950 in a total 200 μL volume were respectively 2.85 μM and 10 μM.
A4.44% solution of KP407 dissolved in sterile, distilled water was prepared at a temperature of 4° C. […]

[5] = Serum chemokines and cytokines after SC injection; assay type: in vivo, mice; settings: mouse, in vivo, sc
Experimental: Lipid Preparation. […] Lipids were used for chemical injections or DC treatment within one hour of their preparation.
Subcutaneous (SC) Injection. Mice were placed under Isoflurane for a few min for anesthesia. Tubes containing the chemicals were vortexed for 30 seconds, then loaded with a 1 mL Sub-Q syringe.
Blood Collection. Mice were placed under Isoflurane for approximately 10 min for anesthesia. Using a 21G needle, mice were gently poked through the skin to the submandibular space to induce bleeding. Five-Six drops were collected in a mini collect K2EDTA blood collection tube. Blood samples were transported back to Corner Therapeutics lab on ice. The blood was then centrifuged at 1500×g for 5 min. After centrifugation, blood was collected into a 96-well round bottom plate and stored at −80° C.
Measurement of Serum Chemokines and Cytokines. Secreted cytokines were measured in the supernatant by cytokine bead array using the LEGENDplex™ Mouse Murine Proinflammatory Chemokine, Murine Cytokine Release Syndrome Legendplex and LEGENDplex™ Mouse Cytokine Panel 2 (Biolegend) according to the manufacturer's protocol. Data were collected using a Quanteon Novocyte flow cytometer and analyzed using the cloud-based software provided by Biolegend.

[6] = tested on: human moDCs; settings: for IFNα2: R848 stimulation, FIG. 33B
[7] = 41.3 uM lipid with R848, FIG. 11
[8] = 41.3 uM lipid with R848 and MCC950, FIG. 11
[9] = 24 hours, lipid in 4% KP407 with R848, FIG. 2B

Compound	hyperactivation of human dendritic cells ([1]; 41.25 μM lipid with R848 (Compound 1 also 20.6 μM))	IL-1β secretion ([1]; 41.25 μM lipid with R848, FIG. 17)	IL-6 secretion ([2]; 41.25 μM lipid with R848, compared with R848 + vehicle)	hyperactivation of moDC (IL-1β secretion with maintained viability) ([1]; 41.3 uM lipid with R848)	IL-1β secretion [1, 7]	IL-1β secretion [1, 8]	IL-1β secretion [1, 9]	IL-1β secretion, dependence on the NLRP3 inflammasome [1]	IL-1β secretion [3]	viability [3]	IL-6 in cell culture supernatant ([2]; human moDCs stimulated with R848, FIG. 10)	IL-6 secretion ([2]; R848 with vehicle, no hyperactivating lipid)	IL-1β [4]	cytokine and chemokine release in the serum [5]	IFNα2 ([6]; donor HD92)	IFNα2 ([6]; donor HD93)	IL-12p70 ([6]; donors HD92 and HD93, FIG. 32C)
CCCCCCCCCCCCCCCCCCCCCCOC[C@H](COP(=O)(O)O)OC(=O)NC [Compound 6, (R)-1-(docosyloxy)-3-(phosphonooxy)propan-2-yl methylcarbamate]	did not	induced minimal IL-1β secretion	IL-6 was secreted at similar levels	–	–	–	–	–	–	–	–	–	–	–	–	–	–
CCCCCCCCCCCCCCCCCCCCCCOC[C@H](CO)OC(N)=O [Compound 7, (S)-1-(docosyloxy)-3-hydroxypropan-2-yl carbamate]	–	–	–	hyperactivating lipids	induced secretion of IL-1β	significantly reduced	produced significantly more IL-1β	depend on the NLRP3 inflammasome for IL-1β secretion	induced the lowest levels of IL-1β secretion	viability was not compromised	–	–	–	–	–	–	–
CCCCCCCCCCCCCCCCCCCCCCOC[C@H](CO)OC(=O)NC [Compound 8, (S)-1-(docosyloxy)-3-hydroxypropan-2-yl methylcarbamate]	–	–	–	hyperactivating lipids	induced secretion of IL-1β	significantly reduced	produced significantly more IL-1β	depend on the NLRP3 inflammasome for IL-1β secretion	induced the lowest levels of IL-1β secretion	viability was not compromised	–	–	–	–	–	–	–
CCOCc1nc2c(N)nc3ccccc3c2n1CC(C)(C)O [Compound R848, resiquimod, reference compound]	–	–	–	–	–	–	–	–	–	–	greater than 20,000 μg/mL	approximately 20,000 μg/mL	288 µg/mL	returned to homeostasis (PBS levels) by 24 hours post injection	94 µg/mL	82 µg/mL	at least 100 μg/mL
